System: NPC1
Type: cell-based, Chinese Hamster

## trehalose dimycolate [TDM]
  resistance to phenotype induction by TDM versus extent of NPC1 overexpression: cells over-expressing NPC1 by 15-fold were more resistant than those over-expressing NPC1 5-fold
FIG. 10B
  induction of NPC cellular phenotypes by TDM in CHO cells overexpressing NPC1, versus wild-type cells: more resistant to induction of NPC cellular phenotypes than wild-type cells
